Values of other authors as cited in PMC9841982 (ACS Medicinal Chemistry Letters, 2022).

Experiments:
[1] = tested on: murine pancreatic islets; conditions: free TAK-242, murine islet transplantation
[2] = authors' earlier work with TAK-242

- sulfonamide bond stability [2]: relatively stable
Compound: CCOC(=O)C1=CCCC[C@H]1S(=O)(=O)Nc1ccc(F)cc1Cl [TAK-242, ethyl (6R)-6-[N-(2-Chloro-4-fluorophenyl)sulfamoyl]cyclohex-1-ene-1-carboxylate]
- effect of free drug on islets and transplant outcome [1]: reduced sterile inflammation-mediated stress in islets during isolation and promoted successful transplant outcomes
